Results published in US20260262643A1, “HERBICIDAL BENZOXAZINES” (FMC CORPORATION, priority 2022, published 2026).
Where two headings read alike, the source gives them in different places.

Legend:
ragweed [1] = experiment: Test A preemergence; assay type: in vivo, Ambrosia artemisiifolia; conditions: Ambrosia artemisiifolia, pre-emergence, 240 h, read-out: Plant response rating, Ragweed; for pest or weed control at 125 g/ha: 125 g ai/ha; for pest or weed control at 500 g/ha: 500 g ai/ha
How it was run: (§1)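 Greenhouse pot test, 10 days. Compound (non-phytotoxic solvent, surfactant) sprayed on soil at seeding or on seedlings at one- to two-leaf stage. Visual injury rated 0–100 against untreated plants.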

kochia = experiment: Test A postemergence; assay type: in vivo, Bassia scoparia; conditions: Bassia scoparia, post-emergence, 240 h, postemergence, 10 days, 0 to 100 scale (0 no effect, 100 complete control); for pest or weed control at 125 g/ha: 125 g ai/ha, read-out: Kochia plant response rating; for pest or weed control at 500 g/ha: 500 g ai/ha, visual injury, read-out: Plant response rating, Kochia
How it was run: as §1

pigweed, palmer [2] = experiment: Test A postemergence; assay type: in vivo, Amaranthus palmeri; conditions: Amaranthus palmeri, post-emergence, 240 h, postemergence, 10 days, 0 to 100 scale (0 no effect, 100 complete control); for pest or weed control at 125 g/ha: 125 g ai/ha, read-out: Pigweed, Palmer plant response rating; for pest or weed control at 500 g/ha: 500 g ai/ha, visual injury, read-out: Plant response rating, Pigweed, Palmer
How it was run: as §1

barnyardgrass = experiment: Test B flooded paddy test; assay type: in vivo, Echinochloa crus-galli; conditions: Echinochloa crus-galli, 312 h, 250 g ai/ha, Flood, 13 days, 0 to 100 scale (0 no effect, 100 complete control); read-out: Plant response rating, Barnyardgrass
How it was run: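 Plants at the 2-leaf stage were flooded to 3 cm above the soil, and test compounds were applied directly into the paddy water, with that depth held throughout. After 13 days in a greenhouse, injury was rated visually against untreated controls on a 0–100 scale (100 = complete control).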

soybean = experiment: Test A postemergence; assay type: in vivo, Glycine max; conditions: Glycine max, post-emergence, 240 h, postemergence, 10 days, 0 to 100 scale (0 no effect, 100 complete control); for plant injury at 125 g/ha: 125 g ai/ha, read-out: Soybean plant response rating; for plant injury at 500 g/ha: 500 g ai/ha, visual injury, read-out: Plant response rating, Soybean
How it was run: as §1

ryegrass, Italian = experiment: Test A preemergence; assay type: in vivo, Lolium multiflorum; conditions: Lolium multiflorum, pre-emergence, 240 h, read-out: Plant response rating, Ryegrass, Italian; for pest or weed control at 125 g/ha: 125 g ai/ha; for pest or weed control at 500 g/ha: 500 g ai/ha
How it was run: as §1

horseweed = experiment: Test A postemergence; assay type: in vivo, Erigeron canadensis; conditions: Erigeron canadensis, post-emergence, 240 h, postemergence, 10 days, 0 to 100 scale (0 no effect, 100 complete control); for pest or weed control at 125 g/ha: 125 g ai/ha, read-out: Horseweed plant response rating; for pest or weed control at 500 g/ha: 500 g ai/ha, visual injury, read-out: Plant response rating, Horseweed
How it was run: as §1

foxtail, giant [3] = experiment: Test A postemergence; assay type: in vivo, Setaria faberi; conditions: Setaria faberi, post-emergence, 240 h, postemergence, 10 days, 0 to 100 scale (0 no effect, 100 complete control); for pest or weed control at 125 g/ha: 125 g ai/ha, read-out: Foxtail, Giant plant response rating; for pest or weed control at 500 g/ha: 500 g ai/ha, visual injury, read-out: Plant response rating, Foxtail, Giant
How it was run: as §1

wheat = experiment: Test A preemergence; assay type: in vivo, Triticum aestivum; conditions: Triticum aestivum, pre-emergence, 240 h, read-out: Plant response rating, Wheat; for plant injury at 125 g/ha: 125 g ai/ha; for plant injury at 500 g/ha: 500 g ai/ha
How it was run: as §1

corn [4] = experiment: Test A preemergence; assay type: in vivo, Zea mays; conditions: Zea mays, pre-emergence, 240 h; for Corn plant response rating (crop injury, 0 = no effect, 100 = complete kill) at 125 g/ha: 125 g ai/ha; for Corn plant response rating (crop injury, 0 = no effect, 100 = complete kill) at 500 g/ha: 500 g ai/ha
How it was run: as §1

corn [5] = experiment: Test A postemergence; assay type: in vivo, Zea mays; conditions: Zea mays, post-emergence, 240 h, postemergence, 10 days, 0 to 100 scale (0 no effect, 100 complete control); for plant injury at 125 g/ha: 125 g ai/ha, read-out: Corn plant response rating; for Corn plant response rating (crop injury, 0 = no effect, 100 = complete kill) at 500 g/ha: 500 g ai/ha, visual injury
How it was run: as §1

pigweed, palmer [6] = experiment: Test A preemergence; assay type: in vivo, Amaranthus palmeri; conditions: Amaranthus palmeri, pre-emergence, 240 h, read-out: Plant response rating, Pigweed, Palmer; for pest or weed control at 125 g/ha: 125 g ai/ha; for pest or weed control at 500 g/ha: 500 g ai/ha
How it was run: as §1

foxtail, giant [7] = experiment: Test A preemergence; assay type: in vivo, Setaria faberi; conditions: Setaria faberi, pre-emergence, 240 h, read-out: Plant response rating, Foxtail, Giant; for pest or weed control at 125 g/ha: 125 g ai/ha; for pest or weed control at 500 g/ha: 500 g ai/ha
How it was run: as §1

ragweed [8] = experiment: Test A postemergence; assay type: in vivo, Ambrosia artemisiifolia; conditions: Ambrosia artemisiifolia, post-emergence, 240 h, postemergence, 10 days, 0 to 100 scale (0 no effect, 100 complete control); for pest or weed control at 125 g/ha: 125 g ai/ha, read-out: Ragweed plant response rating; for pest or weed control at 500 g/ha: 500 g ai/ha, visual injury, read-out: Plant response rating, Ragweed
How it was run: as §1

[9] = visual injury after 10 days, 0 to 100 scale, 0 is no effect, 100 is complete control
[10] = 0 to 100 scale (0 no effect, 100 complete control), 10 days

C[C@H]1CN(C(=O)c2cccc(-c3cnn(C)n3)c2)c2cccc(Cl)c2O1 [Compound 127, [(2S)-8-Chloro-2,3-dihydro-2-methyl-4H-1,4-benzoxazin-4-yl][3-(2-methyl-2H-1,2,3-triazol-4-yl)phenyl]methanone]
pest or weed control at 125 g/ha (ragweed [1]; [9]): 0% | pest or weed control at 500 g/ha (ragweed [1]; [9]): 0% | pest or weed control at 125 g/ha (kochia): 60% | pest or weed control at 500 g/ha (kochia): 90% | pest or weed control at 125 g/ha (pigweed, palmer [2]): 60% | pest or weed control at 500 g/ha (pigweed, palmer [2]): 90% | pest or weed control at 250 g/ha (barnyardgrass): 0% | plant injury at 125 g/ha (soybean): 100% | plant injury at 500 g/ha (soybean): 100% | pest or weed control at 125 g/ha (ryegrass, Italian; [9]): 20% | pest or weed control at 500 g/ha (ryegrass, Italian; [9]): 90% | pest or weed control at 125 g/ha (horseweed): 0% | pest or weed control at 500 g/ha (horseweed): 0% | pest or weed control at 125 g/ha (foxtail, giant [3]): 50% | pest or weed control at 500 g/ha (foxtail, giant [3]): 90% | plant injury at 125 g/ha (wheat; [9]): 0% | plant injury at 500 g/ha (wheat; [9]): 0% | Corn plant response rating (crop injury, 0 = no effect, 100 = complete kill) at 125 g/ha (corn [4]; [9]): 0% | Corn plant response rating (crop injury, 0 = no effect, 100 = complete kill) at 500 g/ha (corn [4]; [9]): 0% | plant injury at 125 g/ha (corn [5]): 20% | Corn plant response rating (crop injury, 0 = no effect, 100 = complete kill) at 500 g/ha (corn [5]): 50% | pest or weed control at 125 g/ha (pigweed, palmer [6]; [9]): 40% | pest or weed control at 500 g/ha (pigweed, palmer [6]; [9]): 90% | pest or weed control at 125 g/ha (foxtail, giant [7]; [9]): 90% | pest or weed control at 500 g/ha (foxtail, giant [7]; [9]): 100% | pest or weed control at 125 g/ha (ragweed [8]): 0% | pest or weed control at 500 g/ha (ragweed [8]): 10%

Cc1cccc2c1O[C@@H](C)CN2C(=O)c1cccc(-n2cnc(C3COC3)n2)c1 [Compound 109, [(2S)-2,3-Dihydro-2,8-dimethyl-4H-1,4-benzoxazin-4-yl][3-[3-(3-oxetanyl)-1H-1,2,4-triazol-1-yl]phenyl]methanone]
pest or weed control at 125 g/ha (ragweed [1]; [9]): 40% | pest or weed control at 500 g/ha (ragweed [1]; [10]): 80% | pest or weed control at 125 g/ha (kochia): 70% | pest or weed control at 500 g/ha (kochia): 90% | pest or weed control at 125 g/ha (pigweed, palmer [2]): 60% | pest or weed control at 500 g/ha (pigweed, palmer [2]): 60% | pest or weed control at 250 g/ha (barnyardgrass): 40% | plant injury at 125 g/ha (soybean): 100% | plant injury at 500 g/ha (soybean): 100% | pest or weed control at 125 g/ha (ryegrass, Italian; [9]): 80% | pest or weed control at 500 g/ha (ryegrass, Italian; [10]): 100% | pest or weed control at 125 g/ha (horseweed): 10% | pest or weed control at 500 g/ha (horseweed): 30% | pest or weed control at 125 g/ha (foxtail, giant [3]): 70% | pest or weed control at 500 g/ha (foxtail, giant [3]): 90% | plant injury at 125 g/ha (wheat; [9]): 40% | plant injury at 500 g/ha (wheat; [10]): 90% | Corn plant response rating (crop injury, 0 = no effect, 100 = complete kill) at 125 g/ha (corn [4]; [9]): 40% | Corn plant response rating (crop injury, 0 = no effect, 100 = complete kill) at 500 g/ha (corn [4]; [10]): 70% | plant injury at 125 g/ha (corn [5]): 60% | Corn plant response rating (crop injury, 0 = no effect, 100 = complete kill) at 500 g/ha (corn [5]): 90% | pest or weed control at 125 g/ha (pigweed, palmer [6]; [9]): 90% | pest or weed control at 500 g/ha (pigweed, palmer [6]; [10]): 100% | pest or weed control at 125 g/ha (foxtail, giant [7]; [9]): 100% | pest or weed control at 500 g/ha (foxtail, giant [7]; [10]): 100% | pest or weed control at 125 g/ha (ragweed [8]): 0% | pest or weed control at 500 g/ha (ragweed [8]): 50%
